Values of other authors as cited in patent publication EP1680106B1, “COMBINATION TREATMENT OF OBESITY INVOLVING 4,5-DIHYDRO-1H-PYRAZOLE DERIVATIVES HAVING CB1-ANTAGONISTIC ACTIVITY AND LIPASE INHIBITORS” (Solvay Pharmaceuticals GmbH, priority 2003, dated 2005).

How the values were obtained:
[1] = test system: carragheenin-induced swelling; conditions: mice
[2] = atypical antipsychotics, follow-up studies
[3] = healthy male volunteers, 5 days with meals; ATL-962 50 mg to 300 mg, orlistat 120 mg tid; placebo 1.4 (+/-1.0)

## Ebelactone B
[1]
  carragheenin-induced swelling: reduces carragheenin-induced swelling

## OCCOCCN1CCN(C2=Nc3ccccc3Sc3ccccc32)CC1 [quetiapine]
[2]
  weight gain with long-term treatment: smallest

## Cc1nc2n(c(=O)c1CCN1CCC(c3noc4cc(F)ccc34)CC1)CCCC2 [Risperidone]
[2]
  weight gain with long-term treatment: modest weight changes that are not dose related

## CCCCCCCCCCC[C@@H](C[C@@H]1OC(=O)[C@H]1CCCCCC)OC(=O)[C@H](CC(C)C)NC=O [tetrahydrolipstatin, (2S,3S,5S)-5-((S)-2-4-methylvaleryloxy)-2-hexyl-3-hydroxy-hexadecanoic acid lactone]
[3]
  average fat excreted: 5.6 (+/-3.8) g/day

## Cc1cc2c(s1)Nc1ccccc1N=C2N1CCN(C)CC1 [olanzapine]
[2]
  weight gain with long-term treatment: largest weight gains

## O=C1Cc2cc(CCN3CCN(c4nsc5ccccc45)CC3)c(Cl)cc2N1 [ziprasidone]
[2]
  weight gain with long-term treatment: smallest

## CN1CCN(C2=Nc3cc(Cl)ccc3Nc3ccccc32)CC1 [clozapine]
[2]
  weight gain with long-term treatment: largest weight gains
